{
  "source": "patent US20250228958A1",
  "about": "“TSP1 INHIBITOR” (Daiichi Sankyo Company, Limited, priority 2022, published 2025)",
  "key": {"human TSP1": {"biological_target": "T1, human TSP1 (Homo sapiens, UniProt P07996)", "T1 construct": "Thrombospondin human platelet (Calbiochem, 605225); purchased Calbiochem 605225; host or cells: human platelets (natural source, not recombinant)", "T1 sequence (P07996 19-1170)": "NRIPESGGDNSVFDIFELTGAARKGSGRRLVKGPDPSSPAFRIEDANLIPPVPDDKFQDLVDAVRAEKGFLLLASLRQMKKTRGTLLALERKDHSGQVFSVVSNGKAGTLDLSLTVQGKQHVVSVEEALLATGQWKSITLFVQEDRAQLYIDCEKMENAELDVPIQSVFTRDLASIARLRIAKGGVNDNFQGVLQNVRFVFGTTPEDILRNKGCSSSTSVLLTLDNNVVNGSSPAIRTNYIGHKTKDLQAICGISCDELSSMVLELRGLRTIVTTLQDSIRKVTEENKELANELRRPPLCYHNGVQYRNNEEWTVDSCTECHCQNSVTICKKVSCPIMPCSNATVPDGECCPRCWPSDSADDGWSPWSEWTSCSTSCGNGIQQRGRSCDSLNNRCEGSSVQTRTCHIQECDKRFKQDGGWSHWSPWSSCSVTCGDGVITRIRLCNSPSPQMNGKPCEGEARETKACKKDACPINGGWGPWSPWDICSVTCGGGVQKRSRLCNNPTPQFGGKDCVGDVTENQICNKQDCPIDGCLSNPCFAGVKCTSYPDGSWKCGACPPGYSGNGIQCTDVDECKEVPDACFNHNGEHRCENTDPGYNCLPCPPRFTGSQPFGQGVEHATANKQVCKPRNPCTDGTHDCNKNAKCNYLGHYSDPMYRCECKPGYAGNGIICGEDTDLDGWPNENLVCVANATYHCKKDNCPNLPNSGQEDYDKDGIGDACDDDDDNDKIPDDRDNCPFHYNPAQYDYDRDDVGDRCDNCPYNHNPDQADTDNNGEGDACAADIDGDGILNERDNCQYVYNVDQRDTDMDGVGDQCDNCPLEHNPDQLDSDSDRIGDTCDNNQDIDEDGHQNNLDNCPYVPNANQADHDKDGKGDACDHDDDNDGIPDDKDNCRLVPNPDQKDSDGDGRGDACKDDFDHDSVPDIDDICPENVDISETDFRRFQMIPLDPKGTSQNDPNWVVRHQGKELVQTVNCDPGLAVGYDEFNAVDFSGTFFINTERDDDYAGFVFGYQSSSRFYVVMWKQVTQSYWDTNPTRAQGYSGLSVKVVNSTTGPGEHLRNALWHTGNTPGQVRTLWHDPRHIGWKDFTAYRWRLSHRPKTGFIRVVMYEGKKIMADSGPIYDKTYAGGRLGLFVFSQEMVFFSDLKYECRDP", "experiment": "Cell adhesion inhibition assay (HUVEC adhesion to TSP1-coated plate)", "format": "cell-based", "settings": "inhibition of HUVEC adhesion to human TSP1-coated plate", "method": "• 384-well Low Flange Black Flat Bottom Polystyrene Not Treated Microplate (Corning, 3573) • Proteosave(registered trademark) SS 15 mL (Sumitomo Bakelite, MS-52150) • Thrombospondin human platelet (Calbiochem, 605225) • HUVEC (KURABO, KE-4109P10) • EGM-2 MV (Lonza, CC-3202): for HUVEC passaging • Collagen coated dish (IWAKI, 4020-010): for HUVEC passaging • Lipidure(registered trademark)-BL802 (NOF Corporation), 5% solution • DMEM low glucose (GIBCO, 11054-020) • Bovine serum albumin (BSA) solution 30% (Sigma A9205) • CellTiter-Glo 2.0 (Promega G9242) […]\nTo maintain human umbilical vein endothelial cells, HUVECs, EGM2-MV and a collagen coated dish were used (the cells were ceased to be used after 10th or 11th passage since the cell proliferation rate declined at this stage). […] After removal of supernatant, the cells were resuspended in a DMEM buffer, counted for cell number, and diluted to 6000 cells/10 μL. […]\nThe culture medium was removed, and the plate was washed twice with 30 L/well of HBSS/Hepes 0.5% BSA. […] Fluorescence emission was detected using EnVision Xcite Multilabel Reader (produced by Perkin Elmer).\nOn the basis of the measured fluorescence values, the IC50 values (nM) of the different cyclic peptides and conjugates for inhibition of cell adhesion were calculated. […]"}, "[1]": {"experiment": "Serum stability test, monkey serum", "format": "in vitro ADME, cynomolgus monkey", "settings": "male, residual ratio: IS ratio at 4 hours relative to 0 hours, 37° C.", "source_text": "(§1) • Mouse serum (BALB/c CrSlc, male, Japan SLC, Inc.) • Monkey serum (cynomolgus monkey, male, Japan SLC, Inc.) • Human serum (Caucasian, pool of 5 males and 5 females, KAC Co., Ltd.) • Phenacetin (Nacalai Tesque, Inc.) • Niflumic acid (Nacalai Tesque, Inc.) • Furosemide (Nacalai Tesque, Inc.) • Acetonitrile (FUJIFILM Wako Pure Chemical Corporation) • Methanol (FUJIFILM Wako Pure Chemical Corporation) • Formic acid (FUJIFILM Wako Pure Chemical Corporation) • Dimethyl sulfoxide (DMSO) (FUJIFILM Wako Pure Chemical Corporation)\n(§2) Solutions of Phenacetin, niflumic acid, and furosemide were prepared in DMSO at 10 μg/ml, 150 μg/ml, and 200 μg/ml, respectively. 10 μg/ml of phenacetin in DMSO, 150 μg/ml of niflumic acid in DMSO, and 200 μg/ml of furosemide in DMSO were dissolved in a mixture of […]/methanol (75/25, v/v) (final concentrations: phenacetin; 1 ng/mL, niflumic acid: 15 ng/mL, and furosemide 20 ng/mL), and formic acid was added to the prepared test solution (final concentration: 1% (v/v)) to prepare a formic acid-containing IS solution.\n(§3) The test substances were prepared in DMSO to a concentration of 10 mM each. Further, the solution was diluted with DMSO to a concentration of 2 mM to make a test substance solution.\n(§4) Each serum was preincubated at 37° C. for 5 minutes, and then the test substance solution was added to a final concentration of 20 μM to initiate the reaction. The test substance-added serum was incubated at 37° C. At 0 and 4 hours after the start of the reaction, a portion of the serum was taken out and added to the formic acid-containing IS solution to stop the reaction, which was used as a measurement sample.\n(§5) The test substance and IS (phenacetin, niflumic acid, and furosemide) in the measurement sample were measured by LC-MS/MS, and the peak area ratio (IS ratio) of the test substance to IS (any of phenacetin, niflumic acid, and furosemide) was calculated.\n(§6) The percentage of the IS ratio at 4 hours after the start of the reaction relative to that at 0 hours after the start of the reaction was used as a residual ratio to evaluate serum stability."}, "[2]": {"experiment": "Serum stability test, mouse serum", "format": "in vitro ADME", "source_text": "as §1, §2, §3, §4, §5, §6"}, "[3]": {"experiment": "Serum stability test, human serum", "format": "in vitro ADME", "settings": "both sexes, residual ratio: IS ratio at 4 hours relative to 0 hours, 37° C.", "source_text": "as §1, §2, §3, §4, §5, §6"}, "[4]": {"tested_on": "C57BL/6 mice, ischemic limb blood flow", "experiment": "Blood flow improvement measurement tests (femoral artery/vein ligation and excision, laser Doppler)", "format": "in vivo, mouse", "settings": "for blood flow AUC, % of vehicle group mean: blood flow AUC from beginning to end of measurement, ratio to vehicle-treated group mean; for %, ischemia/nonischemia (blood flow on the last day of measurement): mean ± standard error, ratio of ischemic limb flow to non-ischemic limb flow", "source_text": "Six to seven-week-old C57BL/6 mice were purchased from Charles River Laboratories Japan Inc., and acclimated over six days by feeding with a FR-2 solid diet (produced by Funabashi Farm Co., Ltd.). The rearing facility switched between light and dark modes in a 12-hour cycle with light turning on at 7 a.m. and turning off at 7 p.m. Under isoflurane inhalation anaesthesia, the left thighs of the mice were dissected, and the superficial femoral arteries and veins (from just below the deep femoral arteries to the popliteal artery and vein) were ligated and excised. […] Five mice were used for each treatment group.\nBlood flows were measured in ischemic (left) and non-ischemic (right) limbs using a laser Doppler perfusion imager (PeriScan PIM III, Moor LD12-HR). The improvement of blood flow was evaluated by the ratio of ischemic limb flow to non-ischemic limb flow. […] In addition, blood flow AUC was calculated to determine the ratio (%) of the mean value of the test substance-treated group to the mean value of the vehicle-treated group."}, "[5]": {"biological_target": "Thrombospondin human platelet (Calbiochem, 605225) (human, UniProt P07996 19-1170)", "sequence (P07996 19-1170 limits assumed)": "as the sequence (P07996 19-1170) above", "experiment": "cell-based or functional assay"}},
  "note": "Entries after “also recorded” stand apart in the source; their conditions may differ. Positions of bridges follow the written chain, without caps; N, C: chain ends. Non-standard residues stand in square brackets, D forms with d. Residues, ends and D or L forms follow the SMILES beside them. Chains are numbered I, II in the order given. No end group written: not given here. maleimide = maleimide-group-derived moiety in the linking group, forming a thioether bond with the thiol of a cysteine residue of the carrier molecule; KPEG = (2S)-6-amino-2-[[2-(methoxy-oligo(ethoxy))acetyl]amino]hexanoic acid (Lys with N-alpha methoxy-PEG acetyl); 2Nal = N[C@@H](Cc1ccc2ccccc2c1)C(=O)O; Gly(cPent) = N[C@H](C(=O)O)C1CCCC1; Agb = N=C(N)NCC[C@H](N)C(=O)O; Tle = CC(C)(C)[C@H](N)C(=O)O; hCys = N[C@@H](CCS)C(=O)O; P12P = not defined here",
  "data": [
    {"molecule": "N=C(N)NCCC[C@@H]1NC(=O)[C@H](Cc2ccc3ccccc3c2)NC(=O)CSC[C@@H](C(N)=O)NC(=O)[C@H](C2CCCC2)NC(=O)[C@H](Cc2c[nH]c3ccccc23)NC(=O)[C@H](CCCNC(=N)N)NC(=O)[C@@H]2CCSSCC[C@H](NC1=O)C(=O)NCC(=O)N[C@@H](CCNC(=N)N)C(=O)N[C@@H](CC(N)=O)C(=O)N[C@@H](Cc1c[nH]c3ccccc13)C(=O)N2", "note": "[Peptide-1] ({CH2CO}-[2Nal]R[hCys]G[Agb]NW[hCys]RW[Gly(cPent)]C-NH2; disulfide 3-8; thioether N-12)", "values": [
      {"measurement": "IC50", "setting": "human TSP1", "value": 12.6, "unit": "nM"},
      {"measurement": "remaining at 4 h, 20 μM", "setting": "[1]", "value": 90.6, "unit": "%"},
      {"measurement": "remaining at 4 h, 20 μM", "setting": "[2]; male, BALB/c CrSlc, mouse, mouse serum, residual ratio: IS ratio at 4 hours relative to 0 hours, 20 μM, 37° C.", "value": 101, "unit": "%"},
      {"measurement": "serum stability (in words)", "setting": "[2]; statement covers mouse, monkey and human serum, 4 hours", "value": "high serum stability; also recorded: higher serum stability"},
      {"measurement": "remaining at 4 h, 20 μM", "setting": "[3]", "value": 93.9, "unit": "%"}
    ]},
    {"molecule": "CC(C)(C)[C@@H]1NC(=O)[C@H](Cc2ccc3ccccc3c2)NC(=O)CSC[C@@H](C(N)=O)NC(=O)[C@H](C2CCCC2)NC(=O)[C@H](Cc2c[nH]c3ccccc23)NC(=O)[C@H](CCCNC(=N)N)NC(=O)[C@@H]2CCSSCC[C@H](NC1=O)C(=O)NCC(=O)N[C@@H](CCCNC(=N)N)C(=O)N[C@@H](CC(N)=O)C(=O)N[C@@H](Cc1c[nH]c3ccccc13)C(=O)N2", "note": "[Peptide-8] ({CH2CO}-[2Nal][Tle][hCys]GRNW[hCys]RW[Gly(cPent)]C-NH2; disulfide 3-8; thioether N-12)", "values": [
      {"measurement": "IC50", "setting": "human TSP1", "value": 12.6, "unit": "nM"}
    ]},
    {"molecule": "CC(=O)N[C@H]1[C@H]([C@H](O)[C@H](O)CO)O[C@](CO)(OC[C@H]2O[C@@H](OC3[C@@H](CO)C[C@H](O[C@@H]4[C@@H](OC[C@H]5OC(O[C@H]6[C@H](O)[C@@H](NC(C)=O)C(O[C@H]7[C@H](O)[C@@H](NC(C)=O)C(OCC(=O)NCCCC[C@H](NC(=O)CNC(=O)CNC(=O)CNC(=O)CNC(=O)[C@@H]8CSCC(=O)N[C@@H](Cc9ccc%10ccccc%10c9)C(=O)N[C@H](CCCNC(=N)N)C(=O)N[C@@H](CO)C(=O)NCC(=O)N[C@@H](CCNC(=N)N)C(=O)N[C@H](CC(N)=O)C(=O)N[C@@H](Cc9c[nH]c%10ccccc9%10)C(=O)N[C@@H](C(C)N)C(=O)N[C@H](CCCNC(=N)N)C(=O)N[C@@H](Cc9c[nH]c%10ccccc9%10)C(=O)N[C@@H](C9CCCC9)C(=O)N8)C(=O)NCCOCCOCCOCCOCCOCCOCCOCCOCCOCCOCCOCCOCCC(=O)NCCOCCOCCOCCOCCOCCOCCOCCOCCOCCOCCOCCOCCC(=O)N[C@H](CCCCNC(=O)CCN8C(=O)CC(C)C8=O)C(N)=O)O[C@@H]7CO)O[C@@H]6CO)[C@@H](O)[C@@H](O[C@H]6O[C@H](CO)[C@@H](O)[C@H](O)[C@@H]6O[C@@H]6O[C@H](CO)C(O[C@@H]7O[C@H](CO[C@]8(C(=O)O)C[C@H](O)[C@@H](NC(C)=O)[C@H]([C@H](O)[C@H](O)CO)O8)[C@H](O)[C@H](O)[C@H]7O)[C@H](O)[C@H]6NC(C)=O)[C@@H]5O)O[C@H](CO)[C@@H](O)[C@@H]4O)[C@H](NC(C)=O)[C@H]3O)[C@H](O)[C@@H](O)[C@H]2O)C[C@@H]1O", "note": "(some centres unmarked) [Conjugate-56]", "values": [
      {"measurement": "blood flow AUC, % of vehicle group mean", "setting": "[4]; 0.3 mg/kg", "value": 187.6, "unit": "%"},
      {"measurement": "%, ischemia/nonischemia (blood flow on the last day of measurement)", "setting": "[4]; 0.3 mg/kg", "value": "40.2 ± 5.6", "unit": "%"},
      {"measurement": "blood flow AUC, % of vehicle group mean", "setting": "[4]; 1 mg/kg", "value": 318.4, "unit": "%"},
      {"measurement": "%, ischemia/nonischemia (blood flow on the last day of measurement)", "setting": "[4]; 1 mg/kg", "value": "74.8 ± 11.0", "unit": "%"}
    ]},
    {"molecule": "Conjugate-10 (other, disulfide I:3-I:8; not fully specified; reading uncertain; also: Lys22 maleimide side chain thioether-linked to Fc hinge Cys6 and Cys9 (Eu 226, 229), thioether at chain A 1 at chain A 12 to a chain's N-terminus) peptide: [2Nal]R[hCys]GRDW[hCys]RW[Gly(cPent)]CGSGSDD[KPEG][P12P][P12P]K(maleimide)-NH2 DKTHTCPPCPAPEAAGGPSVFLFPPKPKDTLMISRTPEVTCVVVDVSHEDPEVKFNWYVDGVEVHNAKTKPREEQYNSTYRVVSVLTVLHQDWLNGKEYKCKVSNKALAAPIEKTISKAKGQPREPQVYTLPPSREEMTKNQVSLTCLVKGFYPSDIAVEWESNGQPENNYKTTPPVLDSDGSFFLYSKLTVDKSRWQQGNVFSCSVMHEALHNHYTQKSLSLSPGK", "values": [
      {"measurement": "IC50 for inhibition of cell adhesion (HUVEC to coated human TSP1)", "setting": "[5]", "value": 12.8, "unit": "nM"}
    ]}
  ]
}
